From patent US11066414B2, “Cot modulators and methods of use thereof” (Gilead Sciences, Inc., priority 2015, dated 2021)
Where two headings read alike, the source gives them in different places.

Legend:
TNFα = assay: Cot Monocyte TNFα Cell Based Assay
Human Cot = Human Cot (Homo sapiens (Human), UniProt P41279); assay: High Throughput Cot Biochemical Assay
[1] = Homo sapiens, Monocyte, read-out: EC50 TNF, LPS-stimulated human monocytes, TNFα TR-FRET
[2] = IC50 HTRF, Cot HTRF (TR-FRET KinEASE) biochemical assay, 400 μM ATP
[3] = Homo sapiens, Monocyte, read-out: EC50 TNF, LPS-stimulated human monocytes, TNFα
[4] = IC50 HTRF, Cot HTRF (TR-FRET) biochemical assay

Human Cot, sequence (P41279 30-397): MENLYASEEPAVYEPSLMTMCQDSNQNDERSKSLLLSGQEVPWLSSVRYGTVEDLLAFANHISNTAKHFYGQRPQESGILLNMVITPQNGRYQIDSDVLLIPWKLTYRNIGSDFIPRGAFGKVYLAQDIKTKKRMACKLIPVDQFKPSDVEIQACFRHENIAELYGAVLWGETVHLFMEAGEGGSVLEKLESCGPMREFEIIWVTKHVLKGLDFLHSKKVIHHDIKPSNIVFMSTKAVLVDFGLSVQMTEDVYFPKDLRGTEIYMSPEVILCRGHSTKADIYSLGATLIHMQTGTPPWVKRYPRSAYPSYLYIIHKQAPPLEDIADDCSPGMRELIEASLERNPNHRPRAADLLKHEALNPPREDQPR

SMILES	EC50 (TNFα; [3]) [µM]	IC50 (Human Cot; [4]) [µM]	further results
CC(C)(C)CNc1c(C#N)cnc2c(C#N)cc(N[C@@H](c3ccc4nccn4c3)c3cn(C4(C(F)(F)F)CC4)nn3)cc12 [Example 822, (S)-6-((imidazo[1,2-a]pyridin-6-yl(1-(1-(trifluoromethyl)cyclopropyl)-1H-1,2,3-triazol-4-yl)methyl)amino)-4-(neopentylamino)quinoline-3,8-dicarbonitrile]	–	–	EC50 (TNFα; [1]): 0.687 µM; IC50 (Human Cot; [2]): 0.01 µM
CC(C)(C)CNc1c(C#N)cnc2c(C#N)cc(N[C@H](c3cn(C4(C(F)(F)F)CC4)nn3)c3cccc4ncccc34)cc12 [Example 469, (S)-4-(neopentylamino)-6-((quinolin-5-yl(1-(1-(trifluoromethyl)-cyclopropyl)-1H-1,2,3-triazol-4-yl)methyl)amino)quinoline-3,8-dicarbonitrile]	0.069	0.004	–
Cc1nc(F)ccc1[C@H](Nc1cc(Cl)c2ncc(C#N)c(NCC(C)(C)C)c2c1)c1nnn(C2(C3CC3)CC2)c1F [Example 949, (S)-6-(((1-([1,1′-bi(cyclopropan)]-1-yl)-5-fluoro-1H-1,2,3-triazol-4-yl)(6-fluoro-2-methylpyridin-3-yl)methyl)amino)-8-chloro-4-(neopentylamino)quinoline-3-carbonitrile]	–	–	EC50 (TNFα; [1]): 0.034 µM; IC50 (Human Cot; [2]): 0.004 µM
CC(C)n1cc([C@@H](Nc2cc(Cl)c3ncc(C#N)c(N[C@@H](CCO)c4ccccc4)c3c2)c2cccnc2)nn1 [Example 184, 8-chloro-4-(((S)-3-hydroxy-1-phenylpropyl)amino)-6-(((S)-(1-isopropyl-1H-1,2,3-triazol-4-yl)(pyridin-3-l)methyl)amino)-quinoline-3-carbonitrile]	–	–	EC50 (TNFα; read-out: EC50 TNF, LPS-stimulated human monocytes, TNFα): 0.387 µM; IC50 (Human Cot; read-out: IC50 HTRF, Cot HTRF (TR-FRET) biochemical assay): 0.008 µM
CC(C)(C)CNc1c(C#N)cnc2c(Cl)cc(N[C@H](c3cn(C4CC4)nn3)c3cccc4ncccc34)cc12 [Example 437, (S)-8-chloro-6-(((1-cyclopropyl-1H-1,2,3-triazol-4-yl)(quinolin-5-yl)methyl)amino)-4-(neopentylamino)quinoline-3-carbonitrile]	0.082	0.002	–
Cc1nc(F)ccc1[C@@H](Nc1cc(Cl)c2ncc(C#N)c(NCC(C)(C)C)c2c1)c1cn(C2(C(F)F)CC2)nn1 [Example 509, (R)-8-chloro-6-(((1-(1-(difluoromethyl)-cyclopropyl)-1H-1,2,3-triazol-4-yl)(6-fluoro-2-methylpyridin-3-yl)methyl)amino)-4-(neopentylamino)quinoline-3-carbonitrile]	1	0.267	–
COc1c([C@@H](Nc2cc(Cl)c3ncc(C#N)c(NCC(C)(C)C)c3c2)c2ccc(F)nc2C)nnn1C [Example 969, (S)-8-chloro-6-(((6-fluoro-2-methylpyridin-3-yl)(5-methoxy-1-methyl-1H-1,2,3-triazol-4-yl)methyl)amino)-4-(neopentylamino)quinoline-3-carbonitrile]	–	–	EC50 (TNFα; [1]): 0.258 µM; IC50 (Human Cot; [2]): 0.008 µM
Cc1ncsc1[C@H](Nc1cc(Cl)c2ncc(C#N)c(NCC(C)(C)C)c2c1)c1cn(C2(C3CC3)CC2)nn1 [Example 702, (R)-6-(((1-([1,1′-bi(cyclopropan)]-1-yl)-1H-1,2,3-triazol-4-yl)(4-methylthiazol-5-yl)methyl)amino)-8-chloro-4-(neopentylamino)quinoline-3-carbonitrile]	0.188	0.004	–
Cc1ncccc1[C@H](Nc1cc(Cl)c2ncc(C#N)c(Nc3cccc(Cl)c3F)c2c1)c1c[nH]nn1 [Example 248, (S)-8-chloro-4-((3-chloro-2-fluorophenyl)amino)-6-(((2-methylpyridin-3-yl)(1H-1,2,3-triazol-4-yl)methyl)amino)-quinoline-3-carbonitrile]	0.398	0.004	–
CC(C)(C)CNc1c(C#N)cnc2c(C#N)cc(N[C@H](c3cn(C4(C5CC5)CC4)nn3)c3cccc4cnccc34)cc12 [Example 703, (S)-6-(((1-([1,1′-bi(cyclopropan)]-1-yl)-1H-1,2,3-triazol-4-yl)(isoquinolin-5-yl)methyl)amino)-4-(neopentylamino)quinoline-3,8-dicarbonitrile]	0.022	0.002	–
CC(C)(C)CNc1c(C#N)cnc2c(Cl)cc(N[C@H](c3cn(C(C)(C)CF)nn3)c3cccc4ncccc34)cc12 [Example 694, (S)-8-chloro-6-(((1-(1-fluoro-2-methylpropan-2-yl)-1H-1,2,3-triazol-4-yl)(quinolin-5-yl)methyl)amino)-4-(neopentylamino)quinoline-3-carbonitrile]	0.084	0.007	–
CC(C)(C)CNc1c(C#N)cnc2c(C#N)cc(N[C@H](c3cn(C4(C#N)CC4)nn3)c3cccc4ncccc34)cc12 [Example 577, (S)-6-(((1-(1-cyanocyclopropyl)-1H-1,2,3-triazol-4-yl)(quinolin-5-yl)methyl)amino)-4-(neopentylamino)-quinoline-3,8-dicarbonitrile]	0.049	0.001	–
CCN1Cc2ccc([C@H](Nc3cc(Cl)c4ncc(C#N)c(Nc5ccc(F)c(Cl)c5)c4c3)c3c[nH]nn3)cc2C1 [Example 53, (S)-8-chloro-4-((3-chloro-4-fluorophenyl)amino)-6-(((2-ethylisoindolin-5-yl)(1H-1,2,3-triazol-4-yl)methyl)-amino)quinoline-3-carbonitrile]	4.02	0.081	–
N#Cc1cnc2c(Cl)cc(N[C@@H](c3cccnc3)c3cn(C4COC4)nn3)cc2c1Nc1cnc(F)c(F)c1 [Example 199, (S)-8-chloro-4-((5,6-difluoropyridin-3-yl)amino)-6-(((1-(oxetan-3-yl)-1H-1,2,3-triazol-4-yl)(pyridin-3-yl)methyl)amino)quinoline-3-carbonitrile]	2.52	0.009	–
Cc1nc(F)ccc1[C@H](Nc1cc(C#N)c2ncc(C#N)c(NCC(C)(C)C(F)(F)F)c2c1)c1cn(C2(C(F)(F)F)CC2)nn1 [Example 843, (S)-6-(((6-fluoro-2-methylpyridin-3-yl)(1-(1-(trifluoromethyl)cyclopropyl)-1H-1,2,3-triazol-4-yl)methyl)amino)-4-((3,3,3-trifluoro-2,2-dimethylpropyl)amino)-quinoline-3,8-dicarbonitrile]	–	–	EC50 (TNFα; [1]): 0.104 µM; IC50 (Human Cot; [2]): 0.004 µM
CC(C)(C)CNc1c(C#N)cnc2c(C#N)cc(N[C@H](c3cn(C4(C(N)=O)CCC4)nn3)c3cccc4ncccc34)cc12 [Example 576, (S)-1-(4-(((3,8-dicyano-4-(neopentyl-amino)quinolin-6-yl)amino)(quinolin-5-yl)methyl)-1H-1,2,3-triazol-1-yl)cyclobutane-1-carboxamide]	0.433	0.001	–
Cn1ccc2c([C@H](Nc3cc(Cl)c4ncc(C#N)c(NCC(C)(C)C(F)(F)F)c4c3)c3cn(C4(C(F)F)CC4)nn3)cccc2c1=O [Example 724, (S)-8-chloro-6-(((1-(1-(difluoromethyl)cyclopropyl)-1H-1,2,3-triazol-4-yl)(2-methyl-1-oxo-1,2-dihydroisoquinolin-5-yl)methyl)amino)-4-((3,3,3-trifluoro-2,2-dimethylpropyl)amino)quinoline-3-carbonitrile]	0.044	0.003	–
Cc1nc(F)ccc1[C@H](Nc1cc(Cl)c2ncc(C#N)c(NCC(C)(C)C(F)(F)F)c2c1)c1nnn(C2(C3CC3)CC2)c1F [Example 957]	–	–	EC50 (TNFα; read-out: EC50 TNF, LPS-stimulated human monocytes, TNFα TR-FRET): 0.054 µM; IC50 (Human Cot; read-out: IC50 HTRF, Cot HTRF (TR-FRET KinEASE) biochemical assay, 400 μM ATP): 0.005 µM

Continued, in another order:

EC50 (TNFα; [3]) [µM]	IC50 (Human Cot; [4]) [µM]	SMILES	further results
0.245	0.001	Cc1nc(F)ccc1[C@H](Nc1cc(F)c2ncc(C#N)c(NCC(C)(C)C)c2c1)c1cn(C2(C(N)=O)CCC2)nn1 [Example 487, (S)-1-(4-(((3-cyano-8-fluoro-4-(neopentyl-amino)quinolin-6-yl)amino)(6-fluoro-2-methylpyridin-3-yl)methyl)-1H-1,2,3-triazol-1-yl)cyclobutane-1-carboxamide]	–
0.091	0.003	Cc1nc(F)ccc1[C@H](Nc1cc(Cl)c2ncc(C#N)c(NCC(C)(C)C(F)(F)F)c2c1)c1cn(C(C)(C)C)nn1 [Example 715, (S)-6-(((1-(tert-butyl)-1H-1,2,3-triazol-4-yl)(6-fluoro-2-methylpyridin-3-yl)methyl)amino)-8-chloro-4-((3,3,3-trifluoro-2,2-dimethylpropyl)amino)quinoline-3-carbonitrile]	–
0.151	0.003	CCN1CCc2c([C@H](Nc3cc(Cl)c4ncc(C#N)c(Nc5ccc(F)c(Cl)c5)c4c3)c3cn(C(C)C)nn3)csc2C1 [Example 344, (S)-8-chloro-4-((3-chloro-4-fluorophenyl)amino)-6-(((6-ethyl-4,5,6,7-tetrahydrothieno[2,3-c]pyridin-3-yl)(1-isopropyl-1H-1,2,3-triazol-4-yl)methyl)amino)quinoline-3-carbonitrile]	–
0.109	0.005	CC(C)(C)CNc1c(C#N)cnc2c(Cl)cc(N[C@H](c3cn(C4(C(F)F)CC4)nn3)c3cccn4nccc34)cc12 [Example 538, (S)-8-chloro-6-(((1-(1-(difluoromethyl)-cyclopropyl)-1H-1,2,3-triazol-4-yl)(pyrazolo[1,5-a]pyridin-4-yl)methyl)amino)-4-(neopentylamino)-quinoline-3-carbonitrile]	–
0.751	0.066	Cn1cc2cccc([C@H](Nc3cc(C#N)c4ncc(C#N)c(NCC(C)(C)C)c4c3)c3cn(C4(C(F)(F)F)CC4)nn3)c2n1 [Example 573, (S)-6-(((2-methyl-2H-indazol-7-yl)(1-(1-(trifluoromethyl)cyclopropyl)-1H-1,2,3-triazol-4-yl)methyl)amino)-4-(neopentylamino)quinoline-3,8-dicarbonitrile]	–
